Columns and labels:
Assay type in all cases: in vivo
[1] = system: giant foxtail (Setaria faberi); assay: Test A preemergence, giant foxtail; conditions: 0 to 100 scale (0 no effect, 100 complete control)
How it was run: (§1)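 Ratings of 0–100 (0 no effect, 100 complete control) came from visual comparison with untreated controls after roughly ten days in a greenhouse. Plants in loam soil–sand blend were treated with compound in non-phytotoxic solvent plus surfactant, pre- or postemergence (one- to two-leaf stage).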

[2] = system: giant foxtail (Setaria faberi); assay: Test A postemergence, giant foxtail; conditions: 0 to 100 scale (0 no effect, 100 complete control)
How it was run: as §1

[3] = system: nightshade (eastern black nightshade, Solanum ptycanthum); assay: Test B preemergence, nightshade; conditions: scale 0 to 100
From the text: (§2) Seeds of plant species selected from blackgrass (Alopecurus myosuroides), downy bromegrass (Bromus tectorum), green foxtail (Setaria viridis), Italian ryegrass (Lolium multiflorum), wheat (Triticum aestivum), wild oat (Avena fatua), catchweed bedstraw (Galium aparine), bermudagrass (Cynodon dactylon), Surinam grass (Brachiaria decumbens), cocklebur (Xanthium strumarium), corn (Zea mays), large crabgrass (Digitaria sanguinalis), woolly cupgrass (Eriochloa villosa), giant foxtail (Setaria faberii), goosegrass (Eleusine indica), johnsongrass (Sorghum halepense), kochia (Kochia scoparia), lambsquarters (Chenopodium album), morningglory (Ipomoea coccinea), nightshade (eastern black nightshade, Solanum ptycanthum), yellow nutsedge (Cyperus esculentus), pigweed (Amaranthus retroflexus), ragweed (common ragweed, Ambrosia elatior), soybean (Glycine max), sunflower (common oilseed sunflower, Helianthus annuus), Russian thistle (Salsola kali), and velvetleaf (Abutilon theophrasti) were planted into a blend of loam soil and sand and treated preemergence with test compounds formulated in a non-phytotoxic solvent mixture which included a surfactant. Treated plants and controls were maintained in a greenhouse for 13 to 15 days, after which time all species were compared to controls and visually evaluated. Plant response ratings, summarized in Table B, are based on a scale of 0 to 100 where 0 is no effect and 100 is complete control. A dash (-) response means no test result.

[4] = system: pigweed (Amaranthus retroflexus); assay: Test A preemergence, pigweed; conditions: 0 to 100 scale (0 no effect, 100 complete control)
How it was run: as §1

[5] = system: yellow nutsedge (Cyperus esculentus); assay: Test B preemergence, yellow nutsedge; conditions: scale 0 to 100
From the text: as §2

[6] = system: barnyardgrass (Echinochloa crus-galli); assay: Test B flooded paddy test, barnyardgrass; conditions: Flood
How it was run: (§3)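 Paddy-water application to 2-leaf plants in pots held under 3 cm of flooding; response is a 0–100 visual control rating against controls after 13 to 15 days, and a dash marks a missing result.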

[7] = system: umbrella sedge (Cyperus difformis); assay: Test B flooded paddy test, umbrella sedge; conditions: Flood, scale 0 to 100
How it was run: as §3

[8] = system: velvetleaf (Abutilon theophrasti); assay: Test B preemergence, velvetleaf; conditions: Preemergence, scale 0 to 100
From the text: as §2

wild oat (Avena fatua) = assay: Test B preemergence, wild oat; conditions: scale 0 to 100
From the text: as §2

[9] = system: barnyardgrass (Echinochloa crus-galli); assay: Test A preemergence, barnyardgrass; conditions: 0 to 100 scale (0 no effect, 100 complete control)
How it was run: as §1

[10] = system: catchweed bedstraw (Galium aparine); assay: Test B preemergence, catchweed bedstraw; conditions: scale 0 to 100
From the text: as §2

[11] = system: barnyardgrass (Echinochloa crus-galli); assay: Test A postemergence, barnyardgrass; conditions: 0 to 100 scale (0 no effect, 100 complete control)
How it was run: as §1

corn (Zea mays) [12] = assay: Test A preemergence, corn; conditions: 0 to 100 scale (0 no effect, 100 complete control)
How it was run: as §1

[13] = system: large crabgrass (Digitaria sanguinalis); assay: Test A preemergence, large crabgrass; conditions: 0 to 100 scale (0 no effect, 100 complete control)
How it was run: as §1

[14] = system: ducksalad (Heteranthera limosa); assay: Test B flooded paddy test, ducksalad; conditions: Flood, scale 0 to 100
How it was run: as §3

[15] = system: sunflower (common oilseed sunflower, Helianthus annuus); assay: Test B preemergence, sunflower; conditions: Preemergence, scale 0 to 100
From the text: as §2

corn (Zea mays) [16] = assay: Test A postemergence, corn; conditions: 0 to 100 scale (0 no effect, 100 complete control)
How it was run: as §1

[17] = system: giant foxtail (Setaria faberii); assay: Test B preemergence, giant foxtail; conditions: scale 0 to 100
From the text: as §2

soybean (Glycine max) = assay: Test B preemergence, soybean; conditions: Preemergence, scale 0 to 100
From the text: as §2

[18] = system: green foxtail (Setaria viridis); assay: Test B preemergence, green foxtail; conditions: scale 0 to 100
From the text: as §2

[19] = 250 g ai/ha, scale 0 to 100 (0 no effect, 100 complete control)

Structure (SMILES): CC1(C)CC(S(=O)(=O)Cc2c(C(F)(F)F)nc3n(c2=O)CCCC3)=NO1 [Compound 8, 3-[[(4,5-dihydro-5,5-dimethyl-3-isoxazolyl)sulfonyl]methyl]-6,7,8,9-tetrahydro-2-(trifluoromethyl)-4H-pyrido[1,2-α]pyrimidin-4-one]
- Plant response rating, Foxtail, Giant ([1]; 125 g ai/ha): 100
- Plant response rating, Foxtail, Giant ([1]; 500 g ai/ha): 100
- Plant response rating, Foxtail, Giant ([2]; 125 g ai/ha): 70
- Plant response rating, Foxtail, Giant ([2]; 500 g ai/ha): 90
- Plant response rating, Nightshade ([3]; 16 g ai/ha): 0
- Plant response rating, Nightshade ([3]; 31 g ai/ha): 65
- Plant response rating, Nightshade ([3]; 62 g ai/ha): 75
- Plant response rating, Nightshade ([3]; 125 g ai/ha): 98
- Plant response rating, Pigweed ([4]; 125 g ai/ha): 30
- Plant response rating, Pigweed ([4]; 500 g ai/ha): 100
- Plant response rating, Nutsedge, Yellow ([5]; 16 g ai/ha): 0
- Plant response rating, Nutsedge, Yellow ([5]; 31 g ai/ha): 20
- Plant response rating, Nutsedge, Yellow ([5]; 62 g ai/ha): 60
- Plant response rating, Nutsedge, Yellow ([5]; 125 g ai/ha): 80
- Plant response rating, Barnyardgrass ([6]; 62 g ai/ha, scale 0 to 100): 0
- Plant response rating, Barnyardgrass [6, 19]: 0
- Plant response rating, Sedge, Umbrella ([7]; 62 g ai/ha): 0
- Plant response rating, Sedge, Umbrella ([7]; 250 g ai/ha): 20
- Plant response rating, Velvetleaf ([8]; 16 g ai/ha): 0
- Plant response rating, Velvetleaf ([8]; 31 g ai/ha): 0
- Plant response rating, Velvetleaf ([8]; 62 g ai/ha): 35
- Plant response rating, Velvetleaf ([8]; 125 g ai/ha): 45
- Plant response rating, Oat, Wild (wild oat (Avena fatua); 16 g ai/ha): 0
- Plant response rating, Oat, Wild (wild oat (Avena fatua); 31 g ai/ha): 0
- Plant response rating, Oat, Wild (wild oat (Avena fatua); 62 g ai/ha): 35
- Plant response rating, Oat, Wild (wild oat (Avena fatua); 125 g ai/ha): 90
- Plant response rating, Barnyardgrass ([9]; 125 g ai/ha): 90
- Plant response rating, Barnyardgrass ([9]; 500 g ai/ha): 90
- Plant response rating, Galium ([10]; 16 g ai/ha): 0
- Plant response rating, Galium ([10]; 31 g ai/ha): 0
- Plant response rating, Galium ([10]; 62 g ai/ha): 100
- Plant response rating, Galium ([10]; 125 g ai/ha): 100
- Plant response rating, Barnyardgrass ([11]; 125 g ai/ha): 80
- Plant response rating, Barnyardgrass ([11]; 500 g ai/ha): 90
- Plant response rating, Corn (corn (Zea mays) [12]; 125 g ai/ha): 0
- Plant response rating, Corn (corn (Zea mays) [12]; 500 g ai/ha): 20
- Plant response rating, Crabgrass, Large ([13]; 125 g ai/ha): 90
- Plant response rating, Crabgrass, Large ([13]; 500 g ai/ha): 100
- Plant response rating, Ducksalad ([14]; 62 g ai/ha): 0
- Plant response rating, Ducksalad ([14]; 250 g ai/ha): 20
- Plant response rating, Sunflower ([15]; 16 g ai/ha): 0
- Plant response rating, Sunflower ([15]; 31 g ai/ha): 15
- Plant response rating, Sunflower ([15]; 62 g ai/ha): 40
- Plant response rating, Sunflower ([15]; 125 g ai/ha): 45
- Plant response rating, Corn (corn (Zea mays) [16]; 125 g ai/ha): 0
- Plant response rating, Corn (corn (Zea mays) [16]; 500 g ai/ha): 60
- Plant response rating, Foxtail, Giant ([17]; 16 g ai/ha): 80
- Plant response rating, Foxtail, Giant ([17]; 31 g ai/ha): 90
- Plant response rating, Foxtail, Giant ([17]; 62 g ai/ha): 98
- Plant response rating, Foxtail, Giant ([17]; 125 g ai/ha): 100
- Plant response rating, Soybean (soybean (Glycine max); 16 g ai/ha): 0
- Plant response rating, Soybean (soybean (Glycine max); 31 g ai/ha): 0
- Plant response rating, Soybean (soybean (Glycine max); 62 g ai/ha): 0
- Plant response rating, Soybean (soybean (Glycine max); 125 g ai/ha): 0
- Plant response rating, Foxtail, Green ([18]; 16 g ai/ha): 70
- Plant response rating, Foxtail, Green ([18]; 31 g ai/ha): 85
- Plant response rating, Foxtail, Green ([18]; 62 g ai/ha): 98
- Plant response rating, Foxtail, Green ([18]; 125 g ai/ha): 98

Structure (SMILES): CC1(C)CC(S(=O)(=O)Cc2c(C(F)(F)C(F)(F)F)nc3n(c2=O)CCCC3)=NO1 [Compound 21]
- Plant response rating, Foxtail, Giant ([1]; 125 g ai/ha): 90
- Plant response rating, Foxtail, Giant ([1]; 500 g ai/ha): 100
- Plant response rating, Foxtail, Giant ([2]; 125 g ai/ha): 60
- Plant response rating, Foxtail, Giant ([2]; 500 g ai/ha): 70
- Plant response rating, Nightshade ([3]; 16 g ai/ha): 50
- Plant response rating, Nightshade ([3]; 31 g ai/ha): 50
- Plant response rating, Nightshade ([3]; 62 g ai/ha): 75
- Plant response rating, Nightshade ([3]; 125 g ai/ha): 90
- Plant response rating, Pigweed ([4]; 125 g ai/ha): 0
- Plant response rating, Pigweed ([4]; 500 g ai/ha): 100
- Plant response rating, Nutsedge, Yellow ([5]; 16 g ai/ha): 0
- Plant response rating, Nutsedge, Yellow ([5]; 31 g ai/ha): 20
- Plant response rating, Nutsedge, Yellow ([5]; 62 g ai/ha): 60
- Plant response rating, Nutsedge, Yellow ([5]; 125 g ai/ha): 90
- Plant response rating, Barnyardgrass ([6]; 62 g ai/ha, scale 0 to 100): 0
- Plant response rating, Barnyardgrass [6, 19]: 0
- Plant response rating, Sedge, Umbrella ([7]; 62 g ai/ha): 0
- Plant response rating, Sedge, Umbrella ([7]; 250 g ai/ha): 0
- Plant response rating, Velvetleaf ([8]; 16 g ai/ha): 0
- Plant response rating, Velvetleaf ([8]; 31 g ai/ha): 0
- Plant response rating, Velvetleaf ([8]; 62 g ai/ha): 0
- Plant response rating, Velvetleaf ([8]; 125 g ai/ha): 75
- Plant response rating, Oat, Wild (wild oat (Avena fatua); 16 g ai/ha): 0
- Plant response rating, Oat, Wild (wild oat (Avena fatua); 31 g ai/ha): 30
- Plant response rating, Oat, Wild (wild oat (Avena fatua); 62 g ai/ha): 30
- Plant response rating, Oat, Wild (wild oat (Avena fatua); 125 g ai/ha): 40
- Plant response rating, Barnyardgrass ([9]; 125 g ai/ha): 90
- Plant response rating, Barnyardgrass ([9]; 500 g ai/ha): 100
- Plant response rating, Galium ([10]; 16 g ai/ha): 0
- Plant response rating, Galium ([10]; 31 g ai/ha): 0
- Plant response rating, Galium ([10]; 62 g ai/ha): 30
- Plant response rating, Galium ([10]; 125 g ai/ha): 50
- Plant response rating, Barnyardgrass ([11]; 125 g ai/ha): 70
- Plant response rating, Barnyardgrass ([11]; 500 g ai/ha): 90
- Plant response rating, Corn (corn (Zea mays) [12]; 125 g ai/ha): 0
- Plant response rating, Corn (corn (Zea mays) [12]; 500 g ai/ha): 0
- Plant response rating, Crabgrass, Large ([13]; 125 g ai/ha): 90
- Plant response rating, Crabgrass, Large ([13]; 500 g ai/ha): 100
- Plant response rating, Ducksalad ([14]; 62 g ai/ha): 0
- Plant response rating, Ducksalad ([14]; 250 g ai/ha): 0
- Plant response rating, Sunflower ([15]; 16 g ai/ha): 0
- Plant response rating, Sunflower ([15]; 31 g ai/ha): 0
- Plant response rating, Sunflower ([15]; 62 g ai/ha): 0
- Plant response rating, Sunflower ([15]; 125 g ai/ha): 10
- Plant response rating, Corn (corn (Zea mays) [16]; 125 g ai/ha): 0
- Plant response rating, Corn (corn (Zea mays) [16]; 500 g ai/ha): 0
- Plant response rating, Foxtail, Giant ([17]; 16 g ai/ha): 0
- Plant response rating, Foxtail, Giant ([17]; 31 g ai/ha): 60
- Plant response rating, Foxtail, Giant ([17]; 62 g ai/ha): 80
- Plant response rating, Foxtail, Giant ([17]; 125 g ai/ha): 85
- Plant response rating, Soybean (soybean (Glycine max); 16 g ai/ha): 0
- Plant response rating, Soybean (soybean (Glycine max); 31 g ai/ha): 0
- Plant response rating, Soybean (soybean (Glycine max); 62 g ai/ha): 0
- Plant response rating, Soybean (soybean (Glycine max); 125 g ai/ha): 0
- Plant response rating, Foxtail, Green ([18]; 16 g ai/ha): 0
- Plant response rating, Foxtail, Green ([18]; 31 g ai/ha): 45
- Plant response rating, Foxtail, Green ([18]; 62 g ai/ha): 100
- Plant response rating, Foxtail, Green ([18]; 125 g ai/ha): 100

Source: US20100099561A1, “HETEROBICYCLIC ALKYLTHIO-BRIDGED ISOXAZOLINES” (E.I. DU PONT DE NEMOURS AND COMPANY, priority 2008, published 2010)
